IC50 data for 24 molecules are collected here from patent publication US11390609B2, “Rho-associated protein kinase inhibitor, pharmaceutical composition comprising same, and preparation method and use thereof” (BEIJING TIDE PHARMACEUTICAL CO., LTD., priority 2017, dated 2022).

Molecules are shown by their SMILES. Some results are limits rather than exact numbers.

The assay deals with ROCK1 (Homo sapiens (Human), UniProt Q13464). In words: ROCK1 kinase IC50 assay (biological test method similar to the ROCK2 assay). It is filed as biochemical. The method, then: The kinase IC50 was determined by a commercialized CISBIO kinase detection kit, HTRF KinEASE-STK S2 kit (62ST2PEC). ROCK2 (01-119) employed in the reaction was purchased from Carna Biosciences.
Chain of ROCK1 (Q13464 whole entry, species assumed): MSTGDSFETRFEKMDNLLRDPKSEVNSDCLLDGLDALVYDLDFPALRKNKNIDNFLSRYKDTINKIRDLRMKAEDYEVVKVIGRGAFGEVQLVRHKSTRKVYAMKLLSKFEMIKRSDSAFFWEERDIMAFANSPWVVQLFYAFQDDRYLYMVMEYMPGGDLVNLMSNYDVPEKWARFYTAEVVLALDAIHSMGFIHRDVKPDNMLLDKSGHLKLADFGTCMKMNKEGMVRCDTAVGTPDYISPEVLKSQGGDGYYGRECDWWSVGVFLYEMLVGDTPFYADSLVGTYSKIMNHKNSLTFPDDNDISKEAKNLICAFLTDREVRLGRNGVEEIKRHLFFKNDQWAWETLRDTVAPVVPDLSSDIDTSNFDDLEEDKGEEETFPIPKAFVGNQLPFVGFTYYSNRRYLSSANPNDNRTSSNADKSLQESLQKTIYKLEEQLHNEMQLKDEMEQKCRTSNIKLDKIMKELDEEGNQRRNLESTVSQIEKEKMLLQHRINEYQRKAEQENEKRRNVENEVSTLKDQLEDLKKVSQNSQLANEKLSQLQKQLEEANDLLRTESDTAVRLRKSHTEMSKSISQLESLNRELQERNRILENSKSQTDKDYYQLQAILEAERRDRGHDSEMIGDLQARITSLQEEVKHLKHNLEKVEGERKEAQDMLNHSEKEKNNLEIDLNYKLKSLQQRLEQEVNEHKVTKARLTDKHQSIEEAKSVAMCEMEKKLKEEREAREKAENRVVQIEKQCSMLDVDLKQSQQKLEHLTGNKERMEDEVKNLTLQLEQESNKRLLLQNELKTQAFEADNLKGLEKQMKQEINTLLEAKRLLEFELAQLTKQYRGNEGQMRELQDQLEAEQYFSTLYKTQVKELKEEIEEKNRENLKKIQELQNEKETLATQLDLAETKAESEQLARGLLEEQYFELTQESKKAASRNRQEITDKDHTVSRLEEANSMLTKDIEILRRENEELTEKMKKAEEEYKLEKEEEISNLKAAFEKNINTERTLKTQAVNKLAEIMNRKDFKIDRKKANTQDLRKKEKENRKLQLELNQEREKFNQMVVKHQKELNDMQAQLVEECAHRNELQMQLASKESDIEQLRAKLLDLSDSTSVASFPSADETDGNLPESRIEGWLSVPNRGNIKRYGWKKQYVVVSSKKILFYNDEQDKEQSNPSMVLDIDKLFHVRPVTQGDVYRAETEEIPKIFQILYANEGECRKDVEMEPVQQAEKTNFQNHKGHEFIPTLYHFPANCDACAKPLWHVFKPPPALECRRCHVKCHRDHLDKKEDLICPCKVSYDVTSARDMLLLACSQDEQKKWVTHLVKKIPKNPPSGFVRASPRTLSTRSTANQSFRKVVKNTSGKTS
Before the assay, the following working solutions as needed were formulated with corresponding reagents according to the instruction of the kinase detection kit: 1×kinase buffer, 5×STK-52 substrate working solution (1.5 μM) and 5×ATP working solution (1.5 μM), 5×ROCK2 kinase working solution, 4×Streptavidin-XL665 working solution, and 4×STK-Ab-Cryptate 2 detection solution. Then the assay was performed according to the following procedure.
A solution of a compound at a concentration of 10000 nM was prepared with the 1×kinase buffer containing 2.5% DMSO. Gradient dilution of the solution of the compound was performed with the kinase buffer containing DMSO, so as to obtain solutions of a test compound at 9 different concentrations. In addition to wells of test compounds, a positive well (containing all the reagents except the compound) and a negative well (containing all the reagents except the test compound and kinase) were set. Except for the control wells (positive and negative wells), a solution of a test compound (4 μL) was added to each of the reaction wells, and a solution of 2.5% DMSO was added to the control wells. Then the substrate ([…], 2 μL. 5×STK-S2 substrate working solution) was added to each of the reaction wells. The 5×ROCK2 kinase working solution (2 μL, containing 1.4 ng ROCK2 kinase) was added to each of the reaction wells except for the negative well, the volume of which was made up with the 1×kinase buffer (2 μL). The 5×ATP working solution (2 μL) was added to each of the reaction wells, and the mixtures were incubated at room temperature for 2 hours. After the kinase reaction was complete, the 4×Streptavidin-XL665 working solution was added to each of the reaction wells, the solutions were mixed, followed by immediate addition of the 4×STK-Ab-Cryptate 2 detection solution (5 μL), and the mixtures were incubated at room temperature for 1 hour. The fluorescence signal was read on ENVISION (Perkinelmer) (excitation wavelength: 320 nm, and emission wavelength: 665 nm and 615 nm). The inhibitory rate in each well was calculated based on the fluorescence intensity value: ER (Emission Ratio)=(fluorescence intensity at 665 nm/fluorescence intensity at 615 nm); inhibitory rate=(ERpositive−ERtest compound)/(ERpositive−ERnegative)*100%. Curves were plotted and fitted to obtain the median inhibitory concentration (IC50) of each teat compound with the PRISM 5.0 software.
According to a biological test method similar to the above, the IC50 values of the compounds on ROCK1 were tested.
In the case of `O=C(Nc1ccncc1)c1cc2ccc(-c3nccc(Nc4ccc5[nH]ncc5c4)n3)cc2[nH]1` [TDI01153, 6-(4-((1H-indazol-5-yl)amino)-pyrimidin-2-yl)-N-(pyridin-4-yl)-1H-indole-2-carboxamide], the IC50 was 2720 nM. The result for `CN1CCN(CC(=O)n2ccc3ccc(-c4nccc(Nc5ccc6[nH]ncc6c5)n4)cc32)CC1` [TDI01230, 1-(6-(4-((1H-indazol-5-yl)amino)pyrimidin-2-yl)-1H-indol-1-yl)-2-(4-methylpiperazin-1-yl)ethan-1-one] reads 1500 nM; that for `O=C(c1cc2ccc(-c3nccc(Nc4ccc(-c5cn[nH]c5)c(F)c4)n3)cc2[nH]1)N1CC(F)(F)C1` [TDI01842B, (3,3-difluoroazetidin-1-yl)(6-(4-((3-fluoro-4-(1H-pyrazol-4-yl)phenyl)ami-no)pyrimidn-2-yl)-1H-indol-2-yl)methanone], 2770 nM. `CN(C(=O)c1cc2ccc(-c3nccc(Nc4ccc(-c5cn[nH]c5)cc4)n3)cc2[nH]1)c1ccncc1` [TDI01421, 6-(4-((4-(1H-pyrazol-4-yl)phenyl)-amino)-pyrimidin-2-yl)-N-methyl-N-(pyridin-4-yl)-1H-indole-2-carboxamide] yielded an IC50 of 5940 nM. The result for `O=C(c1cc2ccc(-c3nccc(Nc4ccc(-c5cn[nH]c5)cc4)n3)cc2[nH]1)N1CC(C(F)(F)F)C1` [TDI01433, (6-(4-((4-(1H-pyrazol-4-yl)phenyl)amino)pyrimidin-2-yl)-1H-indol-2-yl)(3-(trifluoromethyl)azetidin-1-yl)methanone] reads 1970 nM; that for `C[C@@H](CN)NC(=O)c1cc2ccc(-c3nccc(Nc4ccc(-c5cn[nH]c5)cc4)n3)cc2[nH]1` [TDI01856, (S)-6-(4-((4-(1H-pyrazol-4-yl)phenyl)-amino)-pyrimidin-2-yl)-N-(1-aminopropan-2-yl)-1H-indole-2-carboxamide], 2040 nM.

Regarding `O=C(c1cc2ccc(-c3nccc(Nc4ccc(-c5cn[nH]c5)cc4)n3)cc2[nH]1)N1CC(F)(F)C1` [TDI01434, (6-(4-((4-(1H-pyrazol-4-yl)phenyl)ami-no)pyrimidin-2-yl)-1H-indol-2-yl)(3,3-difluoroazetidin-1-yl)methanone], the IC50 was over 10000 nM. The result for `O=C(Nc1ccnnc1)c1c[nH]c2ccc(-c3nccc(Nc4ccc5[nH]ncc5c4)n3)cc12` [TDI01191, 5-(4-((1H-indazol-5-yl)amino)-pyrimidin-2-yl)-N-(pyridazin-4-yl)-1H-indole-3-carboxamide] reads 2530 nM; that for `Fc1cc(Nc2ccnc(-c3ccc4cc(-c5nccs5)[nH]c4c3)n2)ccc1-c1cn[nH]c1` [TDI01908, N-(3-fluoro-4-(1H-pyrazol-4-yl)phenyl)-2-(2-(thiazol-2-yl)-1H-indol-6-yl)pyrimidin-4-amine], over 10000 nM; that for `CC(C)NC(=O)c1cc2ccc(-c3nc(Nc4ccc5[nH]ncc5c4)c4occc4n3)cc2s1` [TDI01135, 6-(4-((1H-indazol-5-yl)amino)furo[3,2-d]pyrimidin-2-yl)-N-isopropylben-zo[b]thiophene-2-carboxamide], 3000 nM. Take `O=C(NC1CC1)c1cc2ccc(-c3nccc(Nc4ccc5[nH]ncc5c4)n3)cc2[nH]1` [TDI01151, 6-(4-((1H-indazol-5-yl)amino)-pyrimidin-2-yl)-N-cyclopropyl-1H-indole-2-carboxamide]: 892 nM corresponded to half-maximal inhibition (IC50).

Turning to `Cn1cc(NC(=O)c2cc3ccc(-c4nccc(Nc5ccc6[nH]ncc6c5)n4)cc3[nH]2)cn1` [TDI01134, 6-(4-((1H-indazol-5-yl)amino)-pyrimidin-2-yl)-N-(1-methyl-1H-pyrazol-4-yl)-1H-indole-2-carboxamide], the IC50 stood at 1370 nM. The result for `Cn1c(C(=O)Nc2ccnnc2)cc2ccc(-c3nccc(Nc4ccc5[nH]ncc5c4)n3)cc21` [TDI01201, 6-(4-((1H-indazol-5-yl)amino)-pyrimidin-2-yl)-1-methyl-N-(pyridazin-4-yl)-1H-indole-2-carboxamide] reads 6920 nM. `CN1CCC(N2CCCC(NC(=O)c3cc4ccc(-c5nccc(Nc6ccc7[nH]ncc7c6)n5)cc4[nH]3)C2)CC1` (stereo not drawn) [TDI01318, 6-(4-((1H-indazol-5-yl)amino)-pyrimidin-2-yl)-N-(1′-methyl-[1-4′-bipiperidin]-3-yl)-1H-indole-2-carboxamide] yielded an IC50 of 274 nM. In the case of `C[C@H](CN)NC(=O)c1cc2ccc(-c3nccc(Nc4ccc(-c5cn[nH]c5)cc4)n3)cc2[nH]1` [TDI01855, (R)-6-(4-((4-(1H-pyrazol-4-yl)phenyl)-amino)-pyrimidin-2-yl)-N-(1-aminopropan-2-yl)-1H-indole-2-carboxamide] it was 5420 nM; in that of `O=C(Nc1ccnnc1)N1Cc2ccc(-c3nccc(Nc4ccc5[nH]ncc5c4)n3)cc2C1` [TDI01237, 5-(4-((1H-indazol-5-yl)amino)pyrimidin-2-yl)-N-(pyridazin-4-yl)isoindoline-2-carboxamide], over 10000 nM; in that of `Cc1nc(-c2ccc3cc(C(=O)Nc4ccnnc4)[nH]c3c2)nc(Nc2ccc3[nH]ncc3c2)c1C` [TDI01232, 6-(4-((1H-indazol-5-yl)amino)-5,6-dimethyl-pyrimidin-2-yl)-N-(pyridazin-4-yl)-1H-indole-2-carboxamide], over 10000 nM.

In turn, `O=C(c1cc2ccc(-c3nccc(Nc4ccc(-c5cn[nH]c5)cc4)n3)cc2[nH]1)N1CC(C(F)F)C1` [TDI01435, (6-(4-((4-(1H-pyrazol-4-yl)phenyl)amino)pyrimidin-2-yl)-1H-indol-2-yl)(3-(difluoromethyl)azetidin-1-yl)methanone] gave an IC50 of 1220 nM. The result for `O=C(C1CC(F)(F)C1)N1Cc2ccc(-c3ncc(F)c(Nc4ccc(-c5cn[nH]c5)cc4)n3)cc2C1` [TDI01978, (5-(4-((4-(1H-pyrazol-4-yl)phenyl)amino)-5-fluoropyrimidin-2-yl)isoindolin-2-yl)(3,3-difluorocyclobutyl) methanone] reads over 10000 nM.

Take `CCNC(=O)N1Cc2ccc(-c3nccc(Nc4ccc(-c5cn[nH]c5)cc4)n3)cc2C1` [TDI01411, 5-(4-((4-(1H-pyrazol-4-yl)phenyl)amino)pyrimidin-2-yl)-N-ethylisoindoline-2-carboxamide]: the IC50 is over 10000 nM.

The molecule `Cc1cc(Nc2ccc3[nH]ncc3c2)nc(-c2ccc3cc(C(=O)Nc4ccnnc4)[nH]c3c2)n1` [TDI01251, 6-(4-((1H-indazol-5-yl)amino)-6-methyl-pyrimidin-2-yl)-N-(pyridazin-4-yl)-1H-indole-2-carboxamide] returned an IC50 of over 10000 nM. The molecule `O=C(Nc1cnncc1Cl)c1cc2ccc(-c3nccc(Nc4ccc5[nH]ncc5c4)n3)cc2[nH]1` [TDI01181, 6-(4-((1H-indazol-5-yl)amino)-pyrimidin-2-yl)-N-(5-chloropridazin-4-yl)-1H-indole-2-carboxamide] yielded an IC50 of 947 nM. The result for `COc1ccc(NC(=O)c2cc3ccc(-c4nccc(Nc5ccc6[nH]ncc6c5)n4)cc3[nH]2)cn1` [TDI01315, 6-(4-((1H-indazol-5-yl)amino)-pyrimidin-2-yl)-N-(6-methoxy-pyridin-3-yl)-1H-indole-2-carboxamide] reads 2150 nM; that for `O=C(Nc1ccncc1)c1cc2ccc(-c3nccc(Nc4ccc(-c5cn[nH]c5)cc4)n3)cc2[nH]1` [TDI01363, 6-(4-((4-(1H-pyrazol-4-yl)phenyl)-amino)-pyrimidin-2-yl)-N-(pyridin-4-yl)-1H-indole-2-carboxamide], over 10000 nM.

As a reminder, the IC50 is the midpoint of a concentration-inhibition curve. Low readings indicate inhibition by little substance, high ones a need for much substance.
